Data published in ChEMBL document CHEMBL1132501, “Synthesis and anti-Helicobacter pylori activity of FR182024, a new cephem derivative” (1999).

Experiments:
[1] = The compound was tested against penicillinase (TEM) and its stability towards beta-lactamase relative to cephaloridine was evaluated
[2] = The compound was tested against penicillinase (TEM) and its stability towards beta-lactamase was evaluated
[3] = system: Beta-lactamase (Bacteroides fragilis); assay: The compound was tested against Bacteroides fragilis FP784 its stability towards beta-lactamase relative to cephaloridine was evaluated
[4] = The compound was tested against Penicillinase (TEM) and its stability towards beta-lactamase relative to cephaloridine was evaluated; format: functional

Cc1nnc(SC2=C(C(=O)O)N3C(=O)[C@@H](NC(=O)Cc4ccccc4)[C@H]3SC2)s1
Vmax [1]: 3.61 | Vmax / Km [1]: 6.33 | Km [2]: 47.4 µg/mL | Vmax / Km [3]: 1.98

O=C(Cc1cccs1)N[C@@H]1C(=O)N2C(C(=O)[O-])=C(C[n+]3ccccc3)CS[C@H]12
Vmax [4]: 1 | Vmax / Km [4]: 1
